# According to paper PMC2649430 (Neuropharmacology, 2008):
# Where a chain is given by its changes, count along the chain named. Read-outs that look alike come from different tables or passages of the source.
# Columns and labels:
# [1] = target: T1, E277A/S297R mutant 5-HT3 receptor (Mus musculus, UniProt P23979, E277A/S297R); format: cell-based; details: no added MgCl2
# T1 sequence (P23979 24-489 E277A/S297R): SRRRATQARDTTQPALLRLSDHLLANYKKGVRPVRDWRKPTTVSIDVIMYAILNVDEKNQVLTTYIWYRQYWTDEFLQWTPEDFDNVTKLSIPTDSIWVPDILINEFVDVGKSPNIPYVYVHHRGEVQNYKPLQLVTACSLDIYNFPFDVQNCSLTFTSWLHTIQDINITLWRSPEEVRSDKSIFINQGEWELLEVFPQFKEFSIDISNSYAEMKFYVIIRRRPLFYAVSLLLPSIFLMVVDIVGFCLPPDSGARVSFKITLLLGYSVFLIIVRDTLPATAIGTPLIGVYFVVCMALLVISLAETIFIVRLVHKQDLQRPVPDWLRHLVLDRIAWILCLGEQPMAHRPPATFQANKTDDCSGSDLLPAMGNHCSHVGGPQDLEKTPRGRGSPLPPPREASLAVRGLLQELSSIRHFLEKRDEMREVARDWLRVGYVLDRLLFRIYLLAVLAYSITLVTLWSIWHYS
# [2] = target: T2, D204N mutant 5-HT3 receptor (Mus musculus, UniProt P23979, D204N); experiment: Whole-cell patch-clamp, D204N mutant in HEK 293 cells; format: cell-based; details: 1 mM 5-HT, n > 50
# T2 sequence (P23979 24-489 D204N): T1 sequence (P23979 24-489 E277A/S297R) with D181N, A254E, R274S
# [3] = target: T3, E215Q mutant 5-HT3 receptor (Mus musculus, UniProt P23979, E215Q); details: no added MgCl2
# T3 sequence (P23979 24-489 E215Q): T1 sequence (P23979 24-489 E277A/S297R) with E192Q, A254E, R274S
# [4] = target: T4, E213Q mutant 5-HT3 receptor (Mus musculus, UniProt P23979, E213Q); experiment: Whole-cell patch-clamp, 5-HT dose-response, E213Q mutant in HEK 293 cells; format: cell-based; details: for Hill slope: E213Q, no added MgCl2
# T4 sequence (P23979 24-489 E213Q): T1 sequence (P23979 24-489 E277A/S297R) with E190Q, A254E, R274S
# [5] = target: T5, E218Q mutant 5-HT3 receptor (Mus musculus, UniProt P23979, E218Q); format: cell-based; details: 1 mM 5-HT, n > 50
# T5 sequence (P23979 24-489 E218Q): T1 sequence (P23979 24-489 E277A/S297R) with E195Q, A254E, R274S
# [6] = target: T6, wild type 5-HT3 receptors (Mus musculus, UniProt P23979)
# T6 sequence (P23979 24-489): T1 sequence (P23979 24-489 E277A/S297R) with A254E, R274S
# [7] = target: T7, V219L mutant 5-HT3 receptor (Mus musculus, UniProt P23979, V219L); experiment: Whole-cell patch-clamp, V219L mutant in HEK 293 cells; format: cell-based; details: 1 mM 5-HT, n > 50
# T7 sequence (P23979 24-489 V219L): T1 sequence (P23979 24-489 E277A/S297R) with V196L, A254E, R274S
compound,measurement,setting,value
"NCCc1c[nH]c2ccc(O)cc12 [5-HT, 5-hydroxytryptamine]",Hill slope,[1]; Ext. Ca2+ 0 mM,2.04 ± 0.16
same,Hill slope,[1]; Ext. Ca2+ 1 mM,1.64 ± 0.25
same,Hill slope,[1]; Ext. Ca2+ 3 mM,1.62 ± 0.30
same,I/I max,[1]; Ext. Ca2+ 3 mM,0.99 ± 0.03
same,Hill slope,[1]; Ext. Ca2+ 10 mM,1.35 ± 0.18
same,I/I max,[1]; Ext. Ca2+ 10 mM,0.96 ± 0.02
same,current response to 5-HT,[2],unable to elicit a response
same,Hill slope,[3]; Ext. Ca2+ 0 mM,2.98 ± 0.11
same,Hill slope,[3]; Ext. Ca2+ 1 mM,3.09 ± 0.39
same,Hill slope,[3]; Ext. Ca2+ 3 mM,2.54 ± 0.19
same,Hill slope,[3]; Ext. Ca2+ 10 mM,1.90 ± 0.24
same,"rates of desensitisation, faster than wild type responses",[4]; E213Q versus wild type,~4 fold
same,Hill slope,[4]; Ext. Ca2+ 0 mM,2.45 ± 0.22
same,Hill slope,[4]; Ext. Ca2+ 1 mM,2.39 ± 0.16
same,Hill slope,[4]; Ext. Ca2+ 3 mM,2.42 ± 0.16
same,Hill slope,[4]; Ext. Ca2+ 10 mM,1.62 ± 0.19
same,current response to 5-HT,[5],unable to elicit a response
same,Hill slope,"[6]; Ext. Ca2+ 0 mM, no added MgCl2",2.39 ± 0.18
same,Hill slope,"[6]; Ext. Ca2+ 1 mM, no added MgCl2",2.24 ± 0.19
same,Hill slope,"[6]; Ext. Ca2+ 3 mM, no added MgCl2",2.08 ± 0.19
same,Hill slope,"[6]; Ext. Ca2+ 10 mM, no added MgCl2",2.08 ± 0.26
same,Hill slope,"[6]; physiological conditions (1.0 mM CaCl2, 1.0 mM MgCl2), n = 23",2.31 ± 0.25
same,current response to 5-HT,[7],unable to elicit a response
